Test results: patent publication US5965605A, “Inhibition of the binding human IgE to its receptor by tetracyclic compounds for the alleviation of IgE-mediated immune response” (Heska Corporation, priority 1997, dated 1999)

Legend:
[1] = molecular target: T1, human FcεRI transfected rat basophil leukemia cell line, SX38 (Homo sapiens, UniProt P01854+P12319); experiment: Cell-based IgE-FcεRI binding assay; settings: for IC50: read-out: IC50, inhibition of IgE-FcεRI binding (converted)
T1 construct: biotinylated recombinant IgE (mouse VH, human Cε, J558L)
T1 sequence (P12319 26-257): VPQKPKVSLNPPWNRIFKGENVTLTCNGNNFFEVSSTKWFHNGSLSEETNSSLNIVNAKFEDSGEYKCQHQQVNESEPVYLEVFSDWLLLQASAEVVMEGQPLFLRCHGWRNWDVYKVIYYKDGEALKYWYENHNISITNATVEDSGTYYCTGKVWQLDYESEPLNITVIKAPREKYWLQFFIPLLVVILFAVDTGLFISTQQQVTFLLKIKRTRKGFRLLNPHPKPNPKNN
T1 sequence (P01854 whole entry): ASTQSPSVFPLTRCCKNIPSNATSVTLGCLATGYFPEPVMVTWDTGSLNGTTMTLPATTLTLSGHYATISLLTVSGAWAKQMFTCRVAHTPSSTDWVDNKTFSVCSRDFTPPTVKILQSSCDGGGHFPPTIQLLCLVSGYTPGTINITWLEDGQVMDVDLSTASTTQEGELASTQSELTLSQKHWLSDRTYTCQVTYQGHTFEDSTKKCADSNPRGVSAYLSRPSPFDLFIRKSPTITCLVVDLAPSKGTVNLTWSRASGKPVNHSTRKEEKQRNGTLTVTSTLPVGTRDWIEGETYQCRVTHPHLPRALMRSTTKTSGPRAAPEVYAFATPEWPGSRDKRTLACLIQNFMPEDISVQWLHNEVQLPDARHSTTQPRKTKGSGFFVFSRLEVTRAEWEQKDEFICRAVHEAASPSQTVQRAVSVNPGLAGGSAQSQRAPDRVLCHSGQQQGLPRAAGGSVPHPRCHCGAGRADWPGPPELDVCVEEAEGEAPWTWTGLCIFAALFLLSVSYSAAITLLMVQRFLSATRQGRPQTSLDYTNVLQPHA
T1 sequence (Q01362 whole entry partner): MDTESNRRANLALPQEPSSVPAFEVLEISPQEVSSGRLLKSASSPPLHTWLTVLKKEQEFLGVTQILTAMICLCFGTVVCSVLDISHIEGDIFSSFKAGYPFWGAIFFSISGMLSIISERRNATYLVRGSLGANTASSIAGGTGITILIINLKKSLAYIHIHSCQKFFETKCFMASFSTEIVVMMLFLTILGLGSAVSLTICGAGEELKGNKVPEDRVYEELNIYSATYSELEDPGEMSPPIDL
T1 sequence (P30273 19-86 partner): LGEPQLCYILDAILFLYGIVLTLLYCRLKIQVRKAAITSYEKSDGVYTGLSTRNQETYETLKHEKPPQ
Description: About 1×10^5 cells in 50 μl of medium were seeded in the wells of 96-well flat bottom plates. […] Forty microliters of this solution was applied to each well and incubated at room temperature for two hours. The plates were washed three times with PBS, and 40 μl of avidin-horseradish peroxidase, at 1 μg/ml in PBS, was added to each well. After an additional hour of incubation at room temperature, the plate was again washed three times with PBS. The subsequent steps for the measurement of the bound IgE were performed as described in the protein-based IgE-FcεRI binding assay.

[2] = molecular target: human IgE / soluble FcεRI α (Fc-FcεRIα fusion protein); experiment: Protein-based IgE-FcεRI binding assay (ELISA); settings: for % Inhibition of IgE/FcεRI binding: 10 μg/ml
Description: A protein-based in vitro assay was developed to screen for compounds which block the interaction between IgE and FcεRI. This assay used human IgE and soluble FcεRI α proteins which were prepared as outlined below. As will be described more below, the assay was performed in the format of an Enzyme-linked ImmunoSorbent Assay (ELISA) as follows. ELISA plates were prepared by coating 96-well plates with soluble FcεRI α protein. In the binding step, biotinylated IgE was captured by the FcεRI α in the wells. In the detection step, bound biotinylated IgE was quantitated by the addition of avidin-horseradish peroxidase and a chromogenic substrate. For the screening of antagonists, the IgE and FcεRI binding assay was performed in the presence of various testing compounds. Compounds that inhibit the interaction between IgE and FcεRI α could be readily detected. This assay was then applied to screen tens of thousand of compounds from a diversified chemical library.
To provide IgE for the ELISA, a recombinant IgE DNA construct was built by ligating a mouse heavy chain variable region, Vh, gene fragment to a human IgE heavy chain, Cε.
The growth medium collected from the above transfected cell culture was concentrated 30-50 times by membrane filtration (Filtron, Northboro, Mass.) and passed through a column of NIP (Genosys Biotechnologies Inc.)-bovine serum albumin (BSA) sepharose. The bound IgE was subsequently eluted from NIP-BSA sepharose using 5 M MgCl2. The eluate was then dialyzed in phosphate buffered saline (PBS). The integrity of the purified IgE was analyzed by SDS-polyacrylamide gel electrophoresis.
To provide soluble FcεRI α protein for ELISA, a DNA construct was made to produce soluble FcεRI α as a protein fused to the Fc region of the human immunoglobulin G heavy chain. The protein product of the construct will he termed Fc-FcεRIα.
The culture media of the cells producing Fc-FcεRI α fusion protein was collected and passed through a Protein A Sepharose column (Repligen, Cambridge, Mass.). The bound fusion protein was eluted from the Protein A Sepharose in 100 mM sodium citrate buffer (pH 4.0) and immediately neutralized with 0.1 volume of 1M Tris-hydrochloride, pH 8. The integrity of the purified protein was analyzed by SDS-polyacrylamide gel electrophoresis.
Fc-FcεRIα was diluted to 0.4 μg/ml in PBS and was used to coat 96-well plates. One hundred microliters of the FcεRIα fusion protein was added to wells of the 96-well plates, and the plate was incubated at 4° C. for 20 hr and washed twice with PBS/T (PBS containing 0.05% Tween-20). The non-specific binding sites in each of the wells were blocked with 200 μl of blocking buffer (PBS containing 1% of BSA and 1% of goat serum) at 37° C. for 2 hr. The plates were then washed 4 times with PBS/T and stored frozen at -20° C. The plates were thawed at room temperature just before use.
IgE was biotinylated as follows. Ten microliters of a 40 mg/ml sulfosuccimidyl 6-(biotinamido)-hexanolate (Pierce, Rockford, Ill.) in dimethylsulphoxide was added to 1 ml of 1 mg/ml IgE in sodium bicarbonate buffer, pH 8.0. After a 4 hr incubation at room temperature, the biotinylation was terminated by the addition of 25 μl of 2M Tris hydrochloride, pH 8 and the resulting biotinylated IgE was diayzed against PBS.
One hundred microliter of this solution was added to wells of a 96-well plate which had been previously coated with Fc-FcεRIα. […] After an additional one hour incubation at room temperature,the plate was again washed four times with PBS/T. The reaction with Avidin-HRP was developed by the addition of 100 μl of K-blue (Elisa Technologies, Lexington, Ky.) to each well.

[3] = Toxicity studies in mice, single I.V. injection; type: in vivo
Excerpt: The potential toxic side effects following systemic administration was investigated by administering compound 1 in PBS to mice in single I.V. injection.

IgE/FcεRI [4] = experiment: in situ rat passive cutaneous anaphylaxis (PCA) model; type: in vivo, Sprague Dawley rats; settings: for Percent inhibition of PCA reaction: injected into skin with 0.03 μg/ml IgE; for IC50, inhibition of anaphylaxis in the rat PCA model: in situ rat PCA model
Excerpt: The tetracyclic compounds that antagonized the IgE and FcεRIα interaction identified in the protein-based assay were further evaluated in the rat PCA model (Haak-Frendscho, et al., J. Immunol., 151:351-358, 1993). […] Mouse anti-dinitrophenyl IgE (Sigma ImmunoChemicals, St. Louis, Mo.) is a bifunctional antibody which binds to dinitrophenyl as well as FcεRI. Exposure of anti-dinitrophenyl-IgE to dinitrophenyl-albumin causes aggregation of the antibody and induces the IgE mediated immune response. […] Fifty microliters of these solutions were injected into the skin of the shaved back of Sprague Dawley rats (Taconic, Germantown, N.Y.). As a positive control, the same amount of anti-dinitrophenyl-IgE in the absence of a tetracyclic compound was injected into the skin of the same rat at a different site. After a period of two hours the sensitized rats were challenged with an intravenous injection of 1 mg/ml of dinitrophenyl-human albumin (Sigma ImmunoChemicals, St. Louis, Mo.) in 1% Evan's blue dye. Thirty minute later, the rats were killed and skinned. Percent inhibition was calculated by the reduction of blue dye at the tetracyclic compound treated injection sites versus the positive control sites.

[5] = Pharmacokinetic studies in rats; type: in vivo; settings: blood, iv, rat, 10 mg/kg I.V.
Description: The pharmacokinetic (PK) profile of the compounds following systemic I.V. injection was measured. Compound 1 was formulated in PBS and given to a rat at 10 mg/kg. Blood was drawn from the rat at different time points after injection. The concentrations of compound 1 in the blood were measured by HPLC after separation from serum.

IgE/FcεRI [6] = experiment: Systemic PCA model in rats; type: in vivo, Sprague Dawley rats
Description: The compounds that have activity in the in situ PCA model were tested in the systemic PCA model. This model measures usefulness of a tetracyclic compound for blocking PCA in rats when the tetracyclic compound is administered systemically and the rats were sensitized with IgE at the skin. In this example, compound I was administrate first into the rats by intravenous (I.V.) injection, and immediately thereafter 0.03 μg/ml of anti-dinitrophenyl/IgE was injected into the skin of the shaved back of Sprague Dawley rats. After a sensitization period of 1 hr, the sensitized rats were challenged with an intravenous injection of 1 mg/ml of dinitrophenyl human albumin in 1% Evan's blue dye. Thirty minutes later, the rats were killed and skinned. As a positive control, PBS, lacking a tetracyclic compound, was administered by I.V. injection into Sprague Dawley rats, and the rats were treated in the same manner as the test rats. Percent inhibition of PCA obtained in this model is calculated by determining reduction of blue dye extracted from the tetracyclic compound treated rats compared to the positive control rats.

[7] = system: rat basophil leukemia cells (RBL cells); experiment: Hexosaminidase release assay; type: cell-based; settings: read-out: % Inhibition of IgE mediated hexosaminidase release
Description: Tetracyclic Compounds that antagonized the IgE and FcεRIα interaction identified in the protein-based assay and cell-based assay were further evaluated in a screening assay using rat basophil leukemia cells (RBL cells). […] About 2×10^5 RBL cells were seeded per well in a 96 well plate and were incubated overnight at 37° C. A mixture of biotinylated mouse IgE (100 μl of 0.125 μg/ml) and a tetracyclic compound, e.g. compound 2, in medium was added lo each well and was incubated for 1 hour at 37° C. The cells were then washed twice with triggering buffer (119 mM NaCl, 5 mM KCl, 25 mM disodium PIPES, 5.6 mM glucose, 1 mM CaCl2, 0.1% BSA), and pre-incubated in triggering buffer for 10 min. at 37° C. One hundred microliters of 0.02 μg/ml streptavidin in triggering buffer was then added and the cells were incubated for an additional 30 min. at 37° C. The 96 well plate is then centrifuged at 4° C. to pellet all cells, and 80 μl of the supernatant is harvested on ice and transferred to another 96 well plate. As a positive control, two aliquots of about 2×10^5 RBL cells were lysed with 100 μl of 0.2% Triton in triggering buffer, and the supernatant was harvested after centrifugation to pellet all cell debris. Addition of streptavidin to RBL cells, which have been incubated with biotinylated IgE will trigger the release of IgE mediated allergy mediators, such as histamine. Antagonization of IgE/FcεRI binding by a tetracyclic compound results in the release of a reduced level of allergy mediators. The release of allergy mediators was quantitated by assaying for the presence of the enzyme hexosaminidase in the supernatant The concentration of hexosaminidase was determined by hydrolysis of its substrate, p-NAG (p-nitrophenyl-N-acetate-[…], Sigma Chemical Co.) in citrate buffer (pH 4.5) at 37° C. for 1 hr.

| Compound | inhibition at 10 µg/mL ([1]; 10 μg/ml) [%] | IC50 [1] [µM] | IC50, inhibition of IgE/FcεRI binding [2] [µg/mL] | % Inhibition of IgE/FcεRI binding [2] [%] | IC50, inhibition of anaphylaxis in the rat PCA model (IgE/FcεRI [4]) [µg/mL] | other results |
| --- | --- | --- | --- | --- | --- | --- |
| O=C(O)c1c(Cl)c(Cl)c(Cl)c(Cl)c1-c1c2cc(I)c(=O)c(I)c-2oc2c(I)c(O)c(I)cc12 (single isomer, unassigned) [Compound 1] | 46 | 12 | 0.34 | 98 | 0.46 | No. of Death ([3]; 400 mg/kg I.V., single injection, 3 mice): 0; LD50 ([3]; mouse, in vivo, iv, mice, single I.V. injection in PBS): > 400 mg/kg; Percent inhibition of PCA reaction (IgE/FcεRI [4]; 0.25 μg/ml): 5%; Percent inhibition of PCA reaction (IgE/FcεRI [4]; 0.5 μg/ml): 66%; Percent inhibition of PCA reaction (IgE/FcεRI [4]; 1 μg/ml): 100%; concentration at 0 h ([5]; 0 minute): 83000 ng/mL; concentration at 0.25 h ([5]; 15 minute): 2510 ng/mL; concentration at 0.5 h ([5]; 30 minute): 902 ng/mL; concentration at 1 h ([5]; 60 minute): 720 ng/mL; concentration at 2 h ([5]; 120 minute): 625 ng/mL; concentration at 4 h ([5]; 240 minute): 512 ng/mL; % Inhibition of PCA (IgE/FcεRI [6]; 47 mg/kg I.V.): 2.0%; % Inhibition of PCA (IgE/FcεRI [6]; 70 mg/kg I.V.): 64.0%; % Inhibition of PCA (IgE/FcεRI [6]; 94 mg/kg I.V.): 104.0%; % Inhibition of PCA (IgE/FcεRI [6]; 114 mg/kg I.V.): 102.0% |
| O=C(O)c1c(Cl)c(Cl)c(Cl)c(Cl)c1-c1c2cc(I)c(=O)c(I)c-2oc2c(I)c(O)c(I)cc12 (single isomer, unassigned) [Compound 2] |  | 5.65 | 0.38 | 100 | 1.10 | % Inhibition of IgE-FcεRI binding ([1]; 10 μg/ml): 62%; inhibition at 0.1 µg/mL ([7]; 0.1 μg/ml): 11%; inhibition at 0.62 µg/mL ([7]; 0.62 μg/ml): 19%; inhibition at 1.25 µg/mL ([7]; 1.25 μg/ml): 75%; inhibition at 2.5 µg/mL ([7]; 2.5 μg/ml): 96%; inhibition at 5 µg/mL ([7]; 5 μg/ml): 94% |
| CCOC(=O)c1c(Cl)c(Cl)c(Cl)c(Cl)c1-c1c2cc(Br)c(=O)c(Br)c-2oc2c(Br)c(O)c(Br)cc12 [Compound 3] |  |  | 4.30 | 90 |  |  |
| CCOC(=O)c1ccccc1-c1c2cc(Br)c(=O)c(Br)c-2oc2c(Br)c(O)c(Br)cc12 [Compound 4] | 93 | 5.33 | 0.82 | 98 | 2.90 |  |
| O=C(O)c1c(Cl)ccc(Cl)c1-c1c2cc(I)c(=O)c(I)c-2oc2c(I)c(O)c(I)cc12 [Compound 5] |  |  | 0.56 | 99 |  |  |
| O=C(O)c1c(Cl)c(Cl)c(Cl)c(Cl)c1-c1c2ccc(=O)c(O)c-2oc2c(O)c(O)ccc12 [Compound 6] |  |  | 0.63 | 83 |  |  |
| COC(=O)c1ccccc1-c1c2cc(Br)c(=O)c(Br)c-2oc2c(Br)c(O)c(Br)cc12 [Compound 7] | 84 | 6.65 | 1.46 | 87 |  |  |
| O=c1c(Br)cc2c(-c3ccccc3S(=O)(=O)O)c3cc(Br)c(O)c(O)c3oc-2c1O [Compound 8] |  |  | 0.65 | 87 |  |  |
